≈ marks a conversion by molar mass, not a printed value. Where two headings read alike, the source gives them in different places.

This is an account of results in patent publication US20220370390A1, “LIQUID ORAL FORMULATION OF BUMETANIDE” (NEUROCHLORE, priority 2019, published 2022).

One data set has as its system ASD core symptoms. In words: Phase 2 clinical trial of oral bumetanide formulation. The data set is classed as in vivo, children and adolescents. To be noted: oral liquid formulation twice a day, paediatric population. The method, then:
A phase 2 clinical trial that was run with various doses of the following oral formulation of bumetanide according to the invention: • Active ingredient: bumetanide at 0.5 mg/ml 1.0 mg/ml 2.0 mg/ml and placebo • Antimicrobial preservative: sodium methylparaben and sodium propylparaben • Buffering agents: NaH2PO4.2H2O and NaH2PO4 • Sweetening agents: Acesulfame potassium and sorbitol • Solvent: water The pH is 6.5. The liquid oral formulation is stored in an amber glass bottle with polypropylene/low density polyethylene child-resistant and tamper-evident cap. A 1 ml dosing pipette, consisting of a polystyrene plunger and a low-density polyethylene barrel and piston was used to administer directly the solution into the mouth. The posology was an oral administration of the liquid formulation twice a day for a paediatric population.

For data set [1] the following is noted: cited from earlier work.

By solubility is commonly meant the concentration that dissolves in the medium under given conditions. In the case of `CCCCNc1cc(C(=O)O)cc(S(N)(=O)=O)c1Oc1ccccc1` [Bumetanide, 3-(Butylamino)-4-phenoxy-5-sulfamoylbenzoic acid], the “severity of ASD core symptoms” value in the data set with ASD core symptoms is “can reduce the severity of ASD core symptoms”. The solubility result was “sparingly soluble” in data set [1] (in aqueous buffers), 33 mg/mL (≈ 90.6 mM) in data set [1] (in dimethyl formamide (DMF)) and 14 mg/mL (≈ 38.4 mM) in data set [1] (in ethanol).
